Assay results: US6413517B1, “Identification of broadly reactive DR restricted epitopes” (Epimmune, Inc., priority 1997, dated 2002)
Like-named read-outs stand apart in the source and are kept apart here.

What was measured:
DRB1*0101 (DR1) = biological target: T1, DRB1*0101 (DR1) (Homo sapiens, UniProt P01903+P01911, A100R/D57E/F55L/F60I/F76Y/I96L/L162R/M171V/P40L/Q125E/R42F/V115G/Y59C); test: biochemical; format: binding; conditions: Binding Capacity (IC 50% nM) DR1,4,7 DRB1
T1 construct: Epstein-Barr virus (EBV) transformed homozygous cell lines were used as sources; endogenous in cells; host or cells: LG2 (EBV-transformed homozygous B cell line)

DRB1*0401 (DR4w4) = biological target: T2, DRB1*0401 (DR4w4) (Homo sapiens, UniProt P01903+P01911, A100K/A169T/F76Y/I96L/K127E/L162R/M171V/N62H/P40V/Q125Y/R42H/S133A/S149N/S66Y/V115G/V209L/W38E); test: biochemical; format: binding
T2 construct: Epstein-Barr virus (EBV) transformed homozygous cell lines were used as sources; endogenous in cells; host or cells: PREISS (EBV-transformed homozygous B cell line)

DRB1*0701 (DR7) = biological target: T3, DRB1*0701 (DR7) (Homo sapiens, UniProt P01903+P01911, A100R/A102G/A103Q/D57E/D86V/E43K/F76Y/K127E/L162R/M171V/P40G/Q125H/Q99D/R33Q/R42Y/R54Q/S133A/S66F/T210M/V115G/Y107V/Y59L/Y89S); test: biochemical; format: binding; conditions: Binding Capacity (IC 50% nM) DR1,4,7 DR7
T3 construct: Epstein-Barr virus (EBV) transformed homozygous cell lines were used as sources; endogenous in cells; host or cells: PITOUT (EBV-transformed homozygous B cell line)

DRB1*1501 (DR2w2b) = biological target: T4, DRB1*1501 (DR2w2b) (Homo sapiens, UniProt P01903+P01911); test: biochemical; format: binding
T4 construct: expressed in transfected cells; host or cells: transfected fibroblasts L466.1

DRB5*0101 (DR2w2a) = biological target: T5, DRB5*0101 (DR2w2a) (Homo sapiens, UniProt P01903+Q30154); test: biochemical; format: binding
T5 construct: Epstein-Barr virus (EBV) transformed homozygous cell lines were used as sources; endogenous in cells; host or cells: GM3107 (EBV-transformed homozygous B cell line)

DRB1*0405 (DR4w15) = biological target: T6, DRB1*0405 (DR4w15) (Homo sapiens, UniProt P01903+P01911, A100R/A169T/D86S/F76Y/I96L/K127E/L162R/M171V/N62H/P40V/Q125Y/R42H/S133A/S149N/S66Y/V115G/V209L/W38E); test: biochemical; format: binding
T6 construct: Epstein-Barr virus (EBV) transformed homozygous cell lines were used as sources; endogenous in cells; host or cells: KT3 (EBV-transformed homozygous B cell line)

DRB1*1101 (DR5w11) = biological target: T7, DRB1*1101 (DR5w11) (Homo sapiens, UniProt P01903+P01911, A100R/A169T/A87E/I96F/K41T/L162R/M171V/P40S/Q125H/Q178H/Q39Y/Q99D/R42S/S66Y/T262R/V115G/W38E); test: biochemical; format: binding
T7 construct: Epstein-Barr virus (EBV) transformed homozygous cell lines were used as sources; endogenous in cells; host or cells: SWEIG (EBV-transformed homozygous B cell line)
T7 sequence (P01903 26-254, other chains not shown): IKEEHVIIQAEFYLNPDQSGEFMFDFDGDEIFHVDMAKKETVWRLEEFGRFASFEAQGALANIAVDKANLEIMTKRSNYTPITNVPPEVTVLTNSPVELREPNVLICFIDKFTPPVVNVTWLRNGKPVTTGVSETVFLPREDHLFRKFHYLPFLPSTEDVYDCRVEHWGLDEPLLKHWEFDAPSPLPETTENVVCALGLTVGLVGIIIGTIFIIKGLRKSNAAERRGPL

DRB1*1302 (DR6w19) = biological target: T8, DRB1*1302 (DR6w19) (Homo sapiens, UniProt P01903+P01911, A100E/A169T/K41T/L162R/M171V/P40S/Q125H/Q178H/Q39Y/Q99D/R42S/S66N/T262R/V115G/W38E/Y61H); test: biochemical; format: binding; conditions: Binding Capacity (IC 50% nM) Other Alleles DR6w19
T8 construct: Epstein-Barr virus (EBV) transformed homozygous cell lines were used as sources; the source of Class II molecules the EBV transformed homozygous cell line H0301; endogenous in cells; host or cells: H0301 (EBV-transformed homozygous B cell line)

DRB1*0802 (DR8w2) = biological target: T9, DRB1*0802 (DR8w2) (Homo sapiens, UniProt P01903+P01911, A100R/A103L/A169T/F76Y/H45Y/I96F/K41T/L162R/M171V/P40S/Q125H/Q178H/Q39Y/Q99D/R218S/R42G/S66Y/V115G/W38E); test: biochemical; format: binding
T9 construct: Epstein-Barr virus (EBV) transformed homozygous cell lines were used as sources; endogenous in cells; host or cells: OLL (EBV-transformed homozygous B cell line)

DRB1*0901 (DR9) = biological target: T10, DRB1*0901 (DR9) (Homo sapiens, UniProt P01903+P01911, A100R/A103E/D57H/D86V/F55Y/F60I/F76Y/I96F/K127E/L162R/M171V/P40D/Q125H/Q99R/R33Q/R42F/S133A/S66N/T210M/V115G/W38K/Y107V/Y59G/Y89S); test: biochemical; format: binding; conditions: Binding Capacity (IC 50% nM) Other Alleles DR9
T10 construct: Epstein-Barr virus (EBV) transformed homozygous cell lines were used as sources; endogenous in cells

DRB1*1201 (DR5w12) = biological target: T11, DRB1*1201 (DR5w12) (Homo sapiens, UniProt P01903+P01911, A100R/A169T/D57E/D86V/F55L/H45Y/K41T/L162R/M171V/P40S/Q125H/Q178H/Q39Y/Q99D/R42G/S66L/T262R/V114A/V67L/W38E/Y59H/Y61H/Y89S); test: biochemical; format: binding
T11 construct: Epstein-Barr virus (EBV) transformed homozygous cell lines were used as sources; endogenous in cells; host or cells: Herluf (EBV-transformed homozygous B cell line)

DRB1*0301 (DR3w17) [1] = biological target: T12, DRB1*0301 (DR3w17) (Homo sapiens, UniProt P01903+P01911, A100K/A102G/A103R/A169T/F55Y/I96L/K41T/L162R/M171V/P40S/Q125H/Q178H/Q39Y/R42S/S66N/T106N/T262R/W38E/Y61H); conditions: read-out: Binding Capacity (IC 50% nM) Other Alleles DR3
DRB1*0301 (DR3w17) [2] = biological target: T12, DRB1*0301 (DR3w17); test: biochemical; conditions: Binding Capacity (IC50% nM) DR3
[3] = Binding Capacity (IC 50% nM) DR1,4,7 DR4w4
[4] = read-out: Binding Capacity (IC 50% nM) Other Alleles DR2w2b
[5] = Binding Capacity (IC 50% nM) Other Alleles DR2w2a
[6] = Binding Capacity (IC 50% nM) Other Alleles DR4w15
[7] = Binding Capacity (IC 50% nM) Other Alleles DR5w11
[8] = Binding Capacity (IC 50% nM) Other Alleles DR8w2
[9] = Binding Capacity (IC50% nM) DR5w12
[10] = read-out: Binding Capacity (IC 50% nM) Other Alleles DR5w12

## CC(C)C[C@H](NC(=O)[C@H](CC(C)C)NC(=O)CNC(=O)[C@H](C)NC(=O)[C@H](CC(C)C)NC(=O)[C@@H](NC(=O)[C@H](CO)NC(=O)[C@@H](NC(=O)[C@H](C)NC(=O)[C@H](CC(C)C)NC(=O)[C@H](CCCCN)NC(=O)[C@H](Cc1ccc(O)cc1)NC(=O)[C@H](CCCCN)NC(=O)[C@H](CO)NC(=O)[C@@H](N)CCCCN)[C@@H](C)O)C(C)C)C(=O)O [Peptide 1188.16]
DRB1*0101 (DR1)
  IC50: < 1000 nM
DRB1*0401 (DR4w4); [3]
  IC50: < 1000 nM
DRB1*0701 (DR7)
  IC50: < 1000 nM
DRB1*1501 (DR2w2b); [4]
  IC50: > 1000 nM
DRB5*0101 (DR2w2a); [5]
  IC50: < 1000 nM
DRB1*0405 (DR4w15); [6]
  IC50: < 1000 nM
DRB1*1101 (DR5w11); [7]
  IC50: < 1000 nM
DRB1*1302 (DR6w19)
  IC50: < 1000 nM
DRB1*0802 (DR8w2); [8]
  IC50: < 1000 nM
DRB1*0901 (DR9)
  IC50: < 1000 nM
DRB1*1201 (DR5w12); [9]
  IC50: > 10000 nM
DRB1*1201 (DR5w12); [10]
  IC50: > 1000 nM
DRB1*0301 (DR3w17) [1]
  IC50: > 1000 nM
DRB1*0301 (DR3w17) [2]
  IC50: > 10000 nM

## CC(C)C[C@H](NC(=O)CNC(=O)[C@H](C)NC(=O)[C@H](CC(C)C)NC(=O)[C@@H](NC(=O)[C@H](CO)NC(=O)[C@@H](NC(=O)[C@H](C)NC(=O)[C@H](CC(C)C)NC(=O)[C@H](CCCCN)NC(=O)[C@H](Cc1ccc(O)cc1)NC(=O)[C@@H](N)CCCCN)[C@@H](C)O)C(C)C)C(=O)N[C@@H](CC(C)C)C(=O)NCC(=O)N[C@@H](CC(N)=O)C(=O)O [Peptide F107.09]
DRB1*0101 (DR1)
  IC50: < 1000 nM
DRB1*0401 (DR4w4); [3]
  IC50: < 1000 nM
DRB1*0701 (DR7)
  IC50: < 1000 nM
DRB1*1501 (DR2w2b); [4]
  IC50: > 1000 nM
DRB5*0101 (DR2w2a); [5]
  IC50: < 1000 nM
DRB1*0405 (DR4w15); [6]
  IC50: < 1000 nM
DRB1*1101 (DR5w11); [7]
  IC50: < 1000 nM
DRB1*1302 (DR6w19)
  IC50: < 1000 nM
DRB1*0802 (DR8w2); [8]
  IC50: < 1000 nM
DRB1*0901 (DR9)
  IC50: < 1000 nM
DRB1*1201 (DR5w12); [9]
  IC50: > 10000 nM
DRB1*1201 (DR5w12); [10]
  IC50: > 1000 nM
DRB1*0301 (DR3w17) [1]
  IC50: > 1000 nM
DRB1*0301 (DR3w17) [2]
  IC50: > 10000 nM

## CC(C)C[C@H](NC(=O)CNC(=O)[C@H](C)NC(=O)[C@@H](N)CC(C)C)C(=O)N[C@@H](CC(C)C)C(=O)NCC(=O)N[C@@H](CC(N)=O)C(=O)N[C@H](C(=O)N[C@@H](CO)C(=O)N[C@H](C(=O)N[C@H](C(=O)N[C@@H](CC(C)C)C(=O)N[C@@H](CC(C)C)C(=O)NCC(=O)NCC(=O)O)C(C)C)[C@@H](C)O)C(C)C [Peptide F107.10]
DRB1*0101 (DR1)
  IC50: < 1000 nM
DRB1*0401 (DR4w4); read-out: Binding Capacity (IC 50% nM) DR1,4,7 DR4w4
  IC50: > 1000 nM
DRB1*0701 (DR7)
  IC50: < 1000 nM
DRB1*1501 (DR2w2b); Binding Capacity (IC 50% nM) Other Alleles DR2w2b
  IC50: < 1000 nM
DRB5*0101 (DR2w2a); Binding Capacity (IC50% nM) DR2w2a
  IC50: > 10000 nM
DRB5*0101 (DR2w2a); read-out: Binding Capacity (IC 50% nM) Other Alleles DR2w2a
  IC50: > 1000 nM
DRB1*0405 (DR4w15); read-out: Binding Capacity (IC 50% nM) Other Alleles DR4w15
  IC50: > 1000 nM
DRB1*1101 (DR5w11); Binding Capacity (IC50% nM) DR5w11
  IC50: > 10000 nM
DRB1*1101 (DR5w11); read-out: Binding Capacity (IC 50% nM) Other Alleles DR5w11
  IC50: > 1000 nM
DRB1*1302 (DR6w19)
  IC50: < 1000 nM
DRB1*0802 (DR8w2); Binding Capacity (IC50% nM) DR8w2
  IC50: > 10000 nM
DRB1*0802 (DR8w2); read-out: Binding Capacity (IC 50% nM) Other Alleles DR8w2
  IC50: > 1000 nM
DRB1*0901 (DR9)
  IC50: < 1000 nM
DRB1*1201 (DR5w12); [9]
  IC50: > 10000 nM
DRB1*1201 (DR5w12); [10]
  IC50: > 1000 nM
DRB1*0301 (DR3w17) [1]
  IC50: > 1000 nM
DRB1*0301 (DR3w17) [2]
  IC50: > 10000 nM
